Values quoted from earlier work in US20230029485A1 (priority 2021, published 2023).

Legend:
Settings in all cases: in vivo
[1] = tested on: metastatic colorectal cancer
SARS-CoV-2 [2] = tested on: SARS-CoV-2
SARS-CoV-2 [3] = tested on: SARS-CoV-2; remark: listed apart in the source

O=c1[nH]cc(F)c(=O)[nH]1 [5-fluorouracil]
objective response rate [1]: around 20%

CCN(CCO)CCCC(C)Nc1ccnc2cc(Cl)ccc12 (stereo not shown) [HCQ, hydroxychloroquine]
developed QT prolongation (SARS-CoV-2 [2]): nine
good clinical outcome and a virological cure (SARS-CoV-2 [2]): 91.7%

CCC(CC)COC(=O)[C@H](C)N[P@](=O)(OC[C@H]1O[C@@](C#N)(c2ccc3c(N)ncnn23)[C@H](O)[C@@H]1O)Oc1ccccc1 [RDV, Remdesivir]
adverse events, share of patients (SARS-CoV-2 [3]): 60.3%
